From paper PMC11858513, “Antibiofilm Activities of Tritrpticin Analogs Against Pathogenic Pseudomonas aeruginosa PA01 Strains” (Molecules, 2025)
≈ marks a conversion by molar mass, not a printed value. Like-named read-outs stand apart in the source and are kept apart here. Residues, ends and D or L forms follow the SMILES beside them.

What was measured:
[1] = system: P. aeruginosa PAO1 GFP; assay: MIC against planktonic cells, absorbance at 600 nm; type: cell-based, Pseudomonas aeruginosa; conditions: Table 2, BM2 medium, absorbance 600 nm, mean of three biological replicates
Summary of the method: (§1)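 GFP-expressing P. aeruginosa PAO1 exposed to peptides; planktonic MIC read by absorbance at 600 nm, while MBIC (prevention) and MBEC (eradication) used biofilm GFP fluorescence at 480/530 nm. Triplicate biological replicates averaged, with untreated growth and medium-only controls on each plate.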

[2] = system: P. aeruginosa PAO1 GFP; assay: MBIC, prevention of biofilm formation, GFP fluorescence method; type: cell-based, Pseudomonas aeruginosa; conditions: Table 2, BM2 medium, mean of three biological replicates
Summary of the method: as §1

[3] = system: P. aeruginosa PAO1 GFP; assay: MBEC, biofilm eradication, GFP fluorescence method; type: cell-based, Pseudomonas aeruginosa; conditions: Table 2, BM2 medium, mean of three biological replicates
Summary of the method: as §1

[4] = system: S. aureus GFP; assay: MIC against planktonic cells, absorbance at 600 nm; type: cell-based, Staphylococcus aureus; conditions: Table 4; Sa GFP, 10% TSB and 0.1% glucose; absorbance 600 nm; mean of three biological replicates
Summary of the method: (§2)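 GFP-expressing S. aureus, triplicate biological replicates. MIC on planktonic cells by absorbance at 600 nm. MBIC and MBEC from biofilm GFP fluorescence (480/530 nm), with untreated growth and media-only controls.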

[5] = system: S. aureus GFP; assay: MBIC, GFP fluorescence method; type: cell-based, Staphylococcus aureus; conditions: Table 4, Sa GFP, 10% TSB and 0.1% glucose, mean of three biological replicates
Summary of the method: as §2

[6] = system: S. aureus GFP; assay: MBEC, GFP fluorescence method; type: cell-based, Staphylococcus aureus; conditions: Table 4, Sa GFP, 10% TSB and 0.1% glucose, mean of three biological replicates
Summary of the method: as §2

[7] = system: S. aureus GFP; type: cell-based, Staphylococcus aureus; conditions: Table 4; Sa GFP; lowest concentration of peptide with no bacterial growth seen on the spot agar plate
[8] = system: P. aeruginosa PAO1; type: cell-based, Pseudomonas aeruginosa; conditions: Table 5; regular PAO1 (no GFP), 1x BM2; absorbance 600 nm; mean of three biological replicates
Summary of the method: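 PAO1 tested with peptides in 1× BM2; planktonic growth read at 600 nm, biofilm quantified by 0.1% crystal violet staining (15 min), ethanol release and 595 nm reading, using a Calgary biofilm device. Values are means of three replicates with untreated-growth and medium-only controls.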

[9] = system: P. aeruginosa PAO1; type: cell-based
Summary of the method: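 Peptides tested against P. aeruginosa PAO1 in 1× BM2 medium; planktonic growth read at 600 nm for MIC. Biofilm inhibition and eradication quantified by 0.1% crystal violet staining (15 min), ethanol release, absorbance at 595 nm, plus GFP-fluorescence and Calgary peg-device methods; triplicate means.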

[10] = system: P. aeruginosa PAO1; type: cell-based, Pseudomonas aeruginosa; conditions: Table 5; PAO1, 1x BM2; biofilms on pegs, cells plated and counted; three biological replicates
Summary of the method: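 Biofilm eradication (MBEC) for peptides against P. aeruginosa PAO1 in 1× BM2 medium, from counts of biofilm cells; GFP-producing strain fluorescence, crystal violet staining and Calgary peg device also used. Three biological replicates, mean ± SD, with untreated growth and medium-only controls.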

[11] = Table 5, PAO1, 1x BM2, crystal violet at 595 nm, mean of three biological replicates
[12] = Table 5, minimum biofilm reduction concentration, PAO1, 1x BM2, crystal violet at 595 nm, mean of three biological replicates

Compound | MIC at 600 nm LD50 [1] [µM] | MIC at 600 nm LD90 [1] [µM] | MBIC at 488 and 530 nm LD50 [2] [µmol/L] | MBIC at 488 and 530 nm LD90 [2] [µmol/L] | MBEC at 488 and 530 nm LD50 [3] [µmol/L] | MBEC at 488 and 530 nm LD90 [3] [µmol/L] | MIC at 600 nm LD50 [4] [µM] | MIC at 600 nm LD90 [4] [µM] | MBIC at 488 and 530 nm LD50 [5] [µmol/L] | MBIC at 488 and 530 nm LD90 [5] [µmol/L] | MBEC at 488 and 530 nm LD50 [6] [µmol/L] | MBEC at 488 and 530 nm LD90 [6] [µmol/L] | MBC Agar Plate [7] [µM] | MIC at 600 nm LD50 [8] [µM] | MIC at 600 nm LD90 [8] [µM] | MBIC (CV at 595 nm) LD50 [9, 11] [µmol/L] | MBIC (CV at 595 nm) LD90 [9, 11] [µmol/L] | MBRC (CV at 595 nm) LD90 [9, 12] [µmol/L] | MBEC from Calgary Biofilm Device (CBD) LD50 [10] [µmol/L] | MBEC from Calgary Biofilm Device (CBD) LD90 [10] [µmol/L] | other results
CC(C)C[C@H](NC(=O)[C@H](Cc1ccccc1)NC(=O)[C@H](C)NC(=O)[C@H](Cc1c[nH]c2ccccc12)NC(=O)[C@H](Cc1c[nH]c2ccccc12)NC(=O)[C@H](Cc1c[nH]c2ccccc12)NC(=O)[C@H](C)NC(=O)[C@H](Cc1ccccc1)NC(=O)[C@H](CCCCN)NC(=O)[C@H](CCCCN)NC(=O)[C@@H](N)C(C)C)C(=O)N[C@@H](CCCCN)C(=O)N[C@@H](CCCCN)C(N)=O [Tritrp-P59A-Lys] (H-VKKFAWWWAFLKK-NH2) | 4 (≈ 6.95 µg/mL) | 4 (≈ 6.95 µg/mL) | 4 | 4 | 32 | 128 | 2 (≈ 3.47 µg/mL) | 2 (≈ 3.47 µg/mL) | 2 | 2 | 2 | 4 | 4 (≈ 6.95 µg/mL) | 4 (≈ 6.95 µg/mL) | 8 (≈ 13.9 µg/mL) | 4 | 8 | 64 | 64 | 128 | MBRC (CV at 595 nm) LD50 ([9]; PAO1): 64 µmol/L
CC(C)C[C@H](NC(=O)[C@H](Cc1ccccc1)NC(=O)[C@@H]1CCCN1C(=O)[C@H](Cc1ccccc1)NC(=O)[C@H](Cc1ccccc1)NC(=O)[C@H](Cc1ccccc1)NC(=O)[C@@H]1CCCN1C(=O)[C@H](Cc1ccccc1)NC(=O)[C@H](CCCNC(=N)N)NC(=O)[C@H](CCCNC(=N)N)NC(=O)[C@@H](N)C(C)C)C(=O)N[C@@H](CCCNC(=N)N)C(=O)N[C@@H](CCCNC(=N)N)C(N)=O [Tritrp-W678F] (H-VRRFPFFFPFLRR-NH2) | 32 (≈ 57.1 µg/mL) | >64 | 32 | 64 | 32 | 64 | 0.5 (≈ 0.892 µg/mL) | 0.5 (≈ 0.892 µg/mL) | 1 | 1 | 2 | 4 | 8 (≈ 14.3 µg/mL) | 32 (≈ 57.1 µg/mL) | >64 | 64 | >64 | >128 | 128 | 128 | MBRC (CV at 595 nm) LD50 ([9]; PAO1): 128 µmol/L
CC(C)C[C@H](NC(=O)[C@H](Cc1ccccc1)NC(=O)[C@@H]1CCCN1C(=O)[C@H](Cc1ccc(O)cc1)NC(=O)[C@H](Cc1ccc(O)cc1)NC(=O)[C@H](Cc1ccc(O)cc1)NC(=O)[C@@H]1CCCN1C(=O)[C@H](Cc1ccccc1)NC(=O)[C@H](CCCNC(=N)N)NC(=O)[C@H](CCCNC(=N)N)NC(=O)[C@@H](N)C(C)C)C(=O)N[C@@H](CCCNC(=N)N)C(=O)N[C@@H](CCCNC(=N)N)C(N)=O [Tritrp-W678Y] (H-VRRFPYYYPFLRR-NH2) | >64 | >64 | >64 | >64 | >128 | >128 | 1 (≈ 1.83 µg/mL) | 2 (≈ 3.66 µg/mL) | 1 | 2 | 2 | 8 | 16 (≈ 29.3 µg/mL) | >64 | >64 | >64 | >64 | >128 | >128 | >128 | MBRC (CV at 595 nm) LD50 ([9]; PAO1): 128 µmol/L
VRRFP(hW)(hW)(hW)PFLRR-NH2 [Tritrp-W678hW, Tritrp analog with hydroxy-Trp in place of the three Trp] | 32 | 64 | 16 | 64 | >128 | >128 | 2 | 4 | 2 | 4 | 4 | 8 | 16 | >64 | >64 | 32 | >64 | >128 | >128 | >128 | MBRC (CV at 595 nm) LD50 [9, 12]: >128 µmol/L
